The results in this text go back to patent publication US20250346606A1, “CAMPTOTHECIN COMPOUND, PREPARATION METHOD THEREFOR, AND APPLICATION THEREOF” (SICHUAN KELUN-BIOTECH BIOPHARMACEUTICAL CO., LTD., priority 2021, published 2025).

Each structure is given as a SMILES string. Read-outs that look alike come from different tables or passages of the source.

Assay [1] deals with MDA-MB-453 cells. Put plainly: Inhibitory effect of compounds on MDA-MB-453 cell proliferation. The assay is classed as cell-based. As to conditions: MDA-MB-453 human breast cancer cells, 72 h incubation, Cell Counting-Lite 2.0. The procedure:
(1) Cell plating: First, tumor cells MDA-MB-453 were cultured in corresponding medium, then digested with trypsin, centrifuged, resuspended, and counted, and the cells were adjusted to an appropriate concentration for plating.
(§1) Co-incubation of the compound of the present disclosure and tumor cells: after the cells adhered to the wall, the medium was removed, and the diluted bioactive molecule (the compound of the present disclosure) was added to the wells of the above plate, and incubated for 72 h.
(§2) In vitro cell viability detection: After the incubation, 50 μL of Cell Counting-Lite™ 2.0 reagent (Vazyme/Novazyme) was added to each well, shaken and mixed well in the dark, reacted for 10 minutes, and then the detection was carried out with a microplate reader (manufacturer: BMG, Model: PHERAStar-FS) for reading. The background RLU was obtained by using cell-free medium (with Cell Counting-Lite™), and the vehicle RLU was obtained by using cell-containing medium (with Cell Counting-Lite™). Cell inhibition rate=1−(sample RLU−background RLU)/(solvent RLU−background RLU)×100%. According to the four-parameter model fitting curve, the half maximal inhibitory concentration (IC50) of the compound was calculated, and the detection results were shown in Table 22.

The subject of assay [2] is HCC1806 cells. Briefly: Inhibitory effect of compounds on HCC1806 cell proliferation. The class given is cell-based, Human. Here is the method:
(1) Cell plating: First, tumor cells HCC1806 were cultured in corresponding medium, then digested with trypsin, centrifuged, resuspended, and counted, and the cells were adjusted to an appropriate concentration for plating.
as §1
as §2, with “6.” for “22.”

Assay [3] has as its system NCI-N87 cells. Briefly: Inhibitory effect of compounds on NCI-N87 cell proliferation. The class given is cell-based, Human. Here is the method: (1) Cell plating: First, tumor cells NCI-N87 were cultured in corresponding medium, then digested with trypsin, centrifuged, resuspended, and counted, and the cells were adjusted to an appropriate concentration for plating.
as §1
as §2, with “12.” for “22.”

For assay [4], the system named is NCI-H358 cells. Briefly: Inhibitory effect of compounds on NCI-H358 cell proliferation. The class given is cell-based, Human. The procedure:
(1) Cell plating: First, tumor cells NCI-H358 were cultured in corresponding medium, then digested with trypsin, centrifuged, resuspended, and counted, and the cells were adjusted to an appropriate concentration for plating.
as §1
as §2, with “10.” for “22.”

Setting [5] is: read-out: IC50, inhibitory activity on HCC1806 cell proliferation, HCC1806 human breast squamous carcinoma cells, 72 h incubation, Cell Counting-Lite 2.0.
[6] abbreviates: read-out: IC50, inhibitory activity on NCI-N87 cell proliferation, NCI-N87 human gastric cancer cells, 72 h incubation, Cell Counting-Lite 2.0.
Setting [7] is: Homo sapiens, NCI-H358, 72 h, read-out: IC50, inhibitory activity on NCI-H358 cell proliferation, NCI-H358 human non-small cell lung cancer cells, 72 h incubation, Cell Counting-Lite 2.0.
[8] abbreviates: read-out: IC50, inhibitory activity on NCI-H358 cell proliferation, NCI-H358 human non-small cell lung cancer cells, 72 h incubation, Cell Counting-Lite 2.0.
Where [9] appears, read: Homo sapiens, NCI-N87, 72 h, read-out: IC50, inhibitory activity on NCI-N87 cell proliferation, NCI-N87 human gastric cancer cells, 72 h incubation, Cell Counting-Lite 2.0.
[10] abbreviates: Homo sapiens, HCC1806, 72 h, read-out: IC50, inhibitory activity on HCC1806 cell proliferation, HCC1806 human breast squamous carcinoma cells, 72 h incubation, Cell Counting-Lite 2.0.
[11] abbreviates: HCC1806 human breast squamous carcinoma cells, 72 h incubation, Cell Counting-Lite 2.0, read-out: IC50, inhibitory activity on HCC1806 cell proliferation.
Where [12] appears, read: NCI-N87 human gastric cancer cells, 72 h incubation, Cell Counting-Lite 2.0, read-out: IC50, inhibitory activity on NCI-N87 cell proliferation.
The mark [13] stands for this setting: NCI-H358 human non-small cell lung cancer cells, 72 h incubation, Cell Counting-Lite 2.0, read-out: IC50, inhibitory activity on NCI-H358 cell proliferation.

With `CC[C@@]1(O)C(=O)OCc2c1cc1n(c2=O)Cc2c-1nc1cc(F)c(Cl)c3c1c2C(NC(=O)C(O)C1CC1)CC3` (single isomer, unassigned) [Example 16 (3-12-A)], the IC50 in assay [1] was determined as 0.47 nM; in assay [2] (setting [5]), 0.16 nM; in assay [3] (setting [6]), 0.44 nM; in assay [4] (setting [7]), 15.4 nM.
Take `CC[C@@]1(O)C(=O)OCc2c1cc1n(c2=O)Cc2c-1nc1cc(F)c(Cl)c3c1c2C(NC(=O)C(O)C1CC1)CC3` (single isomer, unassigned) [Example 16 (3-12-B)]: the IC50 was 4.32 nM in assay [1], 1.76 nM in assay [2] (setting [5]), 3.45 nM in assay [3] (setting [6]) and 19.8 nM in assay [4] (setting [8]).
On to `CC[C@@]1(O)C(=O)OCc2c1cc1n(c2=O)Cc2c-1nc1cc(F)c(Cl)c3c1c2C(NC(=O)C(O)C1CC1)CC3` (single isomer, unassigned) [Example 16 (3-12-C)], for which the IC50 in assay [1] amounted to 5.52 nM; in assay [2] (setting [5]) it was 1.91 nM; in assay [3] (setting [6]), 3.99 nM; in assay [4] (setting [8]), 28.3 nM.
For the molecule `CC[C@@]1(O)C(=O)OCc2c1cc1n(c2=O)Cc2c-1nc1cc(F)c(Cl)c3c1c2C(NC(=O)C(O)C1CC1)CC3` (single isomer, unassigned) [Example 16 (3-12-D)], the IC50 in assay [1] is 3.98 nM; in assay [2] (setting [5]), 1.53 nM; in assay [3] (setting [6]) it was 3.03 nM; in assay [4] (setting [8]) it was 20.8 nM.
For the molecule `CC[C@@]1(O)C(=O)OCc2c1cc1n(c2=O)Cc2c-1nc1cc(F)c(Cl)c3c1c2[C@@H](NC[C@H](C)O)CC3` (single isomer, unassigned) [Example 17 (3-7-A)], the IC50 was determined as 6.23 nM in assay [1] (Homo sapiens, MDA-MB-453, 72 h); 5.32 nM in assay [3] (setting [9]); 49.4 nM in assay [4] (setting [7]).
`CC[C@@]1(O)C(=O)OCc2c1cc1n(c2=O)Cc2c-1nc1cc(F)c(Cl)c3c1c2[C@H](NC[C@H](C)O)CC3` (single isomer, unassigned) [Example 17 (3-7-B)]: the IC50 was determined as 4.87 nM in assay [1] (Homo sapiens, MDA-MB-453, 72 h); 1.94 nM in assay [2] (setting [10]); 4.54 nM in assay [3] (setting [9]); 22.2 nM in assay [4] (setting [7]).
For `CC[C@@]1(O)C(=O)OCc2c1cc1n(c2=O)Cc2c-1nc1cc(F)c(Cl)c3c1c2[C@@H](NC[C@@H](C)O)CC3` (single isomer, unassigned) [Example 25 (3-26-A)], in that order: 3.95 nM, 1.27 nM, 1.23 nM and 31.6 nM.
Take `CC[C@@]1(O)C(=O)OCc2c1cc1n(c2=O)Cc2c-1nc1cc(F)c(Cl)c3c1c2[C@@H](NC(=O)C1(O)CC1)CC3` [Example 18 (3-17-A)]: the IC50 in assay [1] worked out at 3.32 nM; in assay [2] (setting [11]), 1.7 nM; in assay [3] (setting [12]) it was 3.01 nM; in assay [4] (setting [13]) it was 13.3 nM.
For `CC[C@@]1(O)C(=O)OCc2c1cc1n(c2=O)Cc2c-1nc1cc(F)c(Cl)c3c1c2[C@H](NC(=O)C1(O)CC1)CC3` [Example 18 (3-17-B)], the IC50 worked out at 6.16 nM in assay [1], 2.26 nM in assay [2] (setting [11]), 4.19 nM in assay [3] (setting [12]) and 37.3 nM in assay [4] (setting [13]).
For `CC[C@@]1(O)C(=O)OCc2c1cc1n(c2=O)Cc2c-1nc1cc(F)c(C3CC3)c3c1c2[C@@H](NC(=O)CO)CC3` [Example 19 (5-22-A), N-((1S,9S)-4-cyclopropyl-9-ethyl-5-fluoro-9-hydroxy-10,13-dioxo-1,2,3,9,10,12,13,15-tetrahydrobenzo[de]pyrano[3′,4′:6,7]indolizino[1,2-b]quinolin-1-yl)-2-hydroxyacetamide], in that order: 7.34 nM, 2.57 nM, 3.35 nM and 29.9 nM.
On the same counts, the results for `CC[C@@]1(O)C(=O)OCc2c1cc1n(c2=O)Cc2c-1nc1cc(F)c(C3CC3)c3c1c2[C@H](NC(=O)CO)CC3` [Example 19 (5-22-B), N-((1R,9S)-4-cyclopropyl-9-ethyl-5-fluoro-9-hydroxy-10,13-dioxo-1,2,3,9,10,12,13,15-tetrahydrobenzo[de]pyrano[3′,4′:6,7]indolizino[1,2-b]quinolin-1-yl)-2-hydroxyacetamide] are 5.67 nM, 3.71 nM, 5.51 nM and 61.4 nM.
On the same counts, the results for `CC[C@@]1(O)C(=O)OCc2c1cc1n(c2=O)Cc2c-1nc1cc(Cl)c(C)c3c1c2[C@@H](NC[C@@H](C)O)CC3` [Example 24 (2-27-A), (2R)—N-((1S,9S)-5-Chloro-9-ethyl-9-hydroxy-4-methyl-10,13-dioxo-2,3,9,10,13,15-hexahydro-1H,12H-benzo[de]pyrano[3′,4:6,7]indolizino[1,2-b]quinolin-1-yl)-2-hydroxypropylamine] are 11.8 nM, 4.55 nM, 8.32 nM and 56.5 nM.
Turning to `CC[C@@]1(O)C(=O)OCc2c1cc1n(c2=O)Cc2c-1nc1cc(Cl)c(C)c3c1c2[C@H](NC[C@@H](C)O)CC3` [Example 24 (2-27-B), (2R)—N-((1R,9S)-5-chloro-9-ethyl-9-hydroxy-4-methyl-10,13-dioxo-2,3,9,10,13,15-hexahydro-1H,12H-benzo[de]pyrano[3′,4:6,7]indolizino[1,2-b]quinolin-1-yl)-2-hydroxypropylamine], the IC50 in assay [2] (setting [11]) came to 3.93 nM; in assay [3] (setting [12]), 14.7 nM; in assay [4] (setting [13]), 69.1 nM.
